# Experimental data as given in US20220395496A1 (Hoffmann-La Roche Inc., priority 2019, published 2022).
# Target: T1, human TLR8 (Homo sapiens, UniProt Q9NR97)
# T1 sequence (Q9NR97 27-1041): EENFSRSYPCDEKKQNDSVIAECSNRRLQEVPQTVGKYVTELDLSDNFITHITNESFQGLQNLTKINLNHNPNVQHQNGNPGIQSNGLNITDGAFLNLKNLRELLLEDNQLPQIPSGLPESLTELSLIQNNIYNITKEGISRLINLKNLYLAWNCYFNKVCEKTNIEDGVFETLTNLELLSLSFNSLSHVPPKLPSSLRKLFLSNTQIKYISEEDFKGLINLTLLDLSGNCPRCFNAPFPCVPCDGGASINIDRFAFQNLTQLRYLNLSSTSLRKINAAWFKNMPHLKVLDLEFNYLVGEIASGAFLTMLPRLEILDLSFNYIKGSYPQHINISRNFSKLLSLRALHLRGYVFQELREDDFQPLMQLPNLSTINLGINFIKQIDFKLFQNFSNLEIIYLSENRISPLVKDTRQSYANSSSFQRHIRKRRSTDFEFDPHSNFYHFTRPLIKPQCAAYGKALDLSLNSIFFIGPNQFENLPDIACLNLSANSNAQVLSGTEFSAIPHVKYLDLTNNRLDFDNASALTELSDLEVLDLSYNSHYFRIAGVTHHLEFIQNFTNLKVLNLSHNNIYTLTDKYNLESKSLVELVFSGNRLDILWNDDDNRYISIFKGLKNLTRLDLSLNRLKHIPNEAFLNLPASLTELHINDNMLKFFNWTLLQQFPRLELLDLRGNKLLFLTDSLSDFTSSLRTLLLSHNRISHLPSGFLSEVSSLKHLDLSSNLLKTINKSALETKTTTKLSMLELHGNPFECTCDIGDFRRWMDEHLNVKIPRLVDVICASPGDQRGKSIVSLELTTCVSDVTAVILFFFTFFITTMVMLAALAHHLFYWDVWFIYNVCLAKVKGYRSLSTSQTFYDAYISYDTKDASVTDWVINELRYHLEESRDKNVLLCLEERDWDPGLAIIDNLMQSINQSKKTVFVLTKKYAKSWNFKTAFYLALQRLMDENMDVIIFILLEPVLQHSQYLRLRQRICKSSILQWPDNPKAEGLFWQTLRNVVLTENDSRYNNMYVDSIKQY
# Experiment: HEK293-Blue-hTLR-8 cells assay (SEAP reporter, R848 stimulation)
# Format: cell-based
# Conditions: HEK293-Blue-hTLR8 cells, R848, 20 hrs; lowest tested concentration 0.0032
# Procedure: The following tests were carried out in order to determine the activity of the compounds of this invention in HEK293-Blue-hTLR-7/8/9 cells assay.
# HEK293-Blue-hTLR-8 Cells Assay:
# A stable HEK293-Blue-hTLR-8 cell line was purchased from InvivoGen (Cat. #: hkb-htlr8, San Diego, Calif., USA). These cells were originally designed for studying the stimulation of human TLR8 by monitoring the activation of NF-κB. A SEAP (secreted embryonic alkaline phosphatase) reporter gene was placed under the control of the IFN-β minimal promoter fused to five NF-κB and AP-1-binding sites. The SEAP was induced by activating NF-κB and AP-1 via stimulating HEK-Blue hTLR8 cells with TLR8 ligands. Therefore the reporter expression was declined by TLR8 antagonist under the stimulation of a ligand, such as R848, for incubation of 20 hrs. The cell culture supernatant SEAP reporter activity was determined using QUANTI-Blue™kit (Cat. #: rep-qb1, Invivogen, San Diego, Calif., USA) at a wavelength of 640 nm, a detection medium that turns purple or blue in the presence of alkaline phosphatase.
# HEK293-Blue-hTLR8 cells were incubated at a density of […] cells/mL in a volume of 170 μL in a 96-well plate in Dulbecco's Modified Eagle's medium (DMEM) containing 4.5 g/L glucose, 50 U/mL penicillin, […], […], 2 mM L-glutamine, 10% (v/v) heat-inactivated fetal bovine serum with addition of 20 μL test compound in a serial dilution in the presence of final DMSO at 1% and 10 μL of 60 uM R848 in above DMEM, perform incubation under 37° C. in a CO2 incubator for 20 hrs. Then 20 μL of the supernatant from each well was incubated with 180 μL Quanti-blue substrate solution at 37° C. for 2 hrs and the absorbance was read at 620˜655 nm using a spectrophotometer. The signalling pathway that TLR8 activation leads to downstream NF-κB activation has been widely accepted, and therefore similar reporter assay was modified for evaluating TLR8 antagonist.
row,SMILES,IC50 [nM]
1,"CC(N[C@@H]1C[C@H](C)CN(c2ccc(C#N)c3ncccc23)C1)c1ccc(N2CCNCC2)cc1 (stereo partly drawn) [Example 26, 5-[(3S,5R)-3-methyl-5-[1-(4-piperazin-1-ylphenyl)ethylamino]-1-piperidyl]quinoline-8-carbonitrile]",≤ 3
2,"C[C@H]1C[C@@H](NCc2ccc(N3CCNCC3)cc2)CN(c2ccc(C#N)c3nccnc23)C1 [Example 3, 8-[(3S,5R)-3-methyl-5-[(4-piperazin-1-ylphenyl)methylamino]-1-piperidyl]quinoxaline-5-carbonitrile]",4
3,"C[C@H]1C[C@@H](NCc2ccc(N3CCN(C)CC3)cn2)CN(c2ccc(C#N)c3ncsc23)C1 [Example 18, 7-[(3S,5R)-3-methyl-5-[[5-(4-methylpiperazin-1-yl)-2-pyridyl]methylamino]-1-piperidyl]-1,3-benzothiazole-4-carbonitrile]",< 3.2
4,"C[C@H]1C[C@@H](NCc2ccc3c(c2)CCNC3)CN(c2ccc(C#N)c3ncccc23)C1 [Example 11, 5-[(3S,5R)-3-methyl-5-(1,2,3,4-tetrahydroisoquinolin-6-ylmethylamino)-1-piperidyl]quinoline-8-carbonitrile]",< 3.2
5,"C[C@H]1C[C@@H](NCc2ccc(N3CCNCC3)cc2F)CN(c2ccc(C#N)c3ncccc23)C1 [Example 4, 5-[(3R,58)-3-[(2-fluoro-4-piperazin-1-yl-phenyl)methylamino]-5-methyl-1-piperidyl]quinoline-8-carbonitrile]",< 3.2
6,"C[C@H]1C[C@@H](NCc2cnc(N3CCN(C)CC3)nc2)CN(c2ccc(C#N)c3ncccc23)C1 [Example 16, 5-[(3S,5R)-3-methyl-5-[[2-(4-methylpiperazin-1-yl)pyrimidin-5-yl]methylamino]-1-piperidyl]quinoline-8-carbonitrile]",< 3.2
7,"C[C@H]1C[C@@H](NCc2cnc(N3CCN[C@@H](C)C3)nc2)CN(c2ccc(C#N)c3ncccc23)C1 [Example 29, 5-[(3S,5R)-3-methyl-5-[[2-[(3S)-3-methylpiperazin-1-yl]pyrimidin-5-yl]methylamino]-1-piperidyl]quinoline-8-carbonitrile]",< 3.2
8,"C[C@H]1C[C@@H](NCc2ccc3c(n2)CCNC3)CN(c2ccc(C#N)c3ncccc23)C1 [Example 30, 5-[(3S,5R)-3-methyl-5-(5,6,7,8-tetrahydro-1,6-naphthyridin-2-ylmethylamino)-1-piperidyl]quinoline-8-carbonitrile]",< 3.2
9,"C[C@H]1C[C@@H](NCc2ncc(N3CCNCC3)cn2)CN(c2ccc(C#N)c3ncccc23)C1 [Example 25, 5-[(3S,5R)-3-methyl-5-[(5-piperazin-1-ylpyrimidin-2-yl)methylamino]-1-piperidyl]quinoline-8-carbonitrile]",< 3.2
10,"C[C@H]1C[C@@H](NCc2cccc(N3CCN(C)CC3)c2)CN(c2ccc(C#N)c3ncccc23)C1 [Example 6, 5-[(3S,5R)-3-methyl-5-[[3-(4-methylpiperazin-1-yl)phenyl]methylamino]-1-piperidyl]quinoline-8-carbonitrile]",4
11,"C[C@H]1C[C@@H](NCc2cccc(N3CCNCC3)c2)CN(c2ccc(C#N)c3ncccc23)C1 [Example 8, 5-[(3S,5R)-3-methyl-5-[(3-piperazin-1-ylphenyl)methylamino]-1-piperidyl]quinoline-8-carbonitrile]",9
12,"C[C@H]1C[C@@H](NCc2cnc(N3CCN[C@H](C)C3)nc2)CN(c2ccc(C#N)c3ncccc23)C1 [Example 28, 5-[(3S,5R)-3-methyl-5-[[2-[(3R)-3-methylpiperazin-1-yl]pyrimidin-5-yl]methylamino]-1-piperidyl]quinoline-8-carbonitrile]",< 3.2
13,"C[C@H]1C[C@@H](N2Cc3cc(N4CCNCC4)cnc3C2)CN(c2ccc(C#N)c3ncccc23)C1 [Example 23, 5-[(3S,5R)-3-methyl-5-(3-piperazin-1-yl-5,7-dihydropyrrolo[3,4-b]pyridin-6-yl)-1-piperidyl]quinoline-8-carbonitrile]",4
14,"C[C@H]1C[C@@H](NCc2ccc(N3CCNCC3)cc2)CN(c2ccc(C#N)c3ncccc23)C1 [Example 1, 5-[(3S,5R)-3-methyl-5-[(4-piperazin-1-ylphenyl)methylamino]1-piperidyl]quinoline-8-carbonitrile]",< 3.2
15,"C[C@H]1C[C@@H](NCc2ccc(N3CCN(C)CC3)cc2)CN(c2ccc(C#N)c3ncccc23)C1 [Example 7, 5-[(3S,5R)-3-methyl-5-[[4-(4-methylpiperazin-1-yl)phenyl]methylamino]-1-piperidyl]quinoline-8-carbonitrile]",< 3.2
16,"C[C@H]1C[C@@H](N2Cc3ccccc3C2)CN(c2ccc(C#N)c3ncccc23)C1 [Example R2, reference compound]",110
17,"C[C@H]1C[C@@H](NCc2cnc(N3CCNCC3)cn2)CN(c2ccc(C#N)c3ncccc23)C1 [Example 31, 5-[(3S,5R)-3-methyl-5-[(5-piperazin-1-ylpyrazin-2-yl)methylamino]-1-piperidyl]quinoline-8-carbonitrile]",< 3.2
18,"C[C@H]1C[C@@H](NCc2ccc(C3CCNCC3)cc2)CN(c2ccc(C#N)c3ncccc23)C1 [Example 2, 5-[(3S,5R)-3-methyl-5-[[4-(4-piperidyl)phenyl]methylamino]-1-piperidyl]quinoline-8-carbonitrile]",6
19,"C[C@H]1C[C@@H](NCc2ccc(N3CCNCC3)cn2)CN(c2ccc(C#N)c3ncccc23)C1 [Example 5, 5-[(3S,5R)-3-methyl-5-[(5-piperazin-1-yl-2-pyridyl)methylamino]-1-piperidyl]quinoline-8-carbonitrile]",6
20,"C[C@H]1C[C@@H](NCc2cnc(N3CCNCC3)nc2)CN(c2ccc(C#N)c3ncccc23)C1 [Example 17, 5-[(3S,5R)-3-methyl-5-[(2-piperazin-1-ylpyrimidin-5-yl)methylamino]-1-piperidyl]quinoline-8-carbonitrile]",< 3.2
21,"C[C@H]1C[C@@H](NCc2ccccc2)CN(c2ccc(C#N)c3ncccc23)C1 [Example R1, reference compound]",20
22,"Cc1cc(-c2ccc(CN[C@@H]3C[C@H](C)CN(c4ccc(C#N)c5ncccc45)C3)cc2)cc(C)n1 [Example 15, 5-[(3R,5S)-3-[[4-(2,6-dimethyl-4-pyridyl)phenyl]methylamino]-5-methyl-1-piperidyl]quinoline-8-carbonitrile]",10
23,"C[C@H]1C[C@@H](N(C)Cc2ccc(N3CCNCC3)cc2)CN(c2ccc(C#N)c3ncccc23)C1 [Example 9, 5-[(3S,5R)-3-methyl-5-[methyl-[(4-piperazin-1-ylphenyl)methyl]amino]-1-piperidyl]quinoline-8-carbonitrile]",5
24,"C[C@H]1C[C@@H](N2Cc3ccc(N4CCNCC4)cc3C2)CN(c2ccc(C#N)c3ncccc23)C1 [Example 12, 5-[(3S,5R)-3-methyl-5-(5-piperazin-1-ylisoindolin-2-yl)-1-piperidyl]quinoline-8-carbonitrile]",< 3.2
25,C[C@H]1C[C@@H](NCc2ccc(N3CCNCC3)nc2)CN(c2ccc(C#N)c3ncccc23)C1 [Example 10],< 3.2
